{"source": "patent US12208130B2", "about": "“Treatment of women affected with polycystic ovary syndrome” (INSTITUT NATIONAL DE LA SANTE ET DE LA RECHERCHE MEDICALE …, priority 2017, dated 2025)", "key": {"[1]": {"system": "P0 pups", "test": "LH and T measurement in P0 mice", "assay_type": "in vivo, mouse", "conditions": "prenatal GnRH antagonist administration with AMH", "procedure": "FIGS. 4A-4C-2. Prenatal AMH treatment increases perinatal T levels in females and masculinizes their brain. (FIG. 4A) Plasma T and LH levels were measured in pups 2 hours after birth (males, n=5; control females, n=5; PAMH females, n=4; PAMH females+GnRH antag, n=6). (FIG. 4B) TH immunoreactive (-ir) neurons in the AVPV were quantified in these animal groups (n=3 per sex and treatment). The number of AVPV TH-ir neurons are represented as the mean±s.e.m. (One-way ANOVA and Tukey's multiple comparisons post-hoc test, F(2,6)=231.1, ***P<0.0001). In FIG. 4B: left bar: male; middle bar: control female; right bar: PAMH female. (FIGS. 4C-1, 4C-2)\nFor the analysis of circulating LH and T levels, animals were decapitated and trunk blood from adult (P60) animals and P0 pups (1-2 hrs after birth) were collected in sterile Eppendorf tubes and left on ice until centrifugation. Plasma was collected and stored at −80° C. until use. LH levels were determined by a sandwich ELISA, as described previously (Vidal et al., 2012, PloS one, Vol. 7: e39001), using the mouse LH-RP reference provided by A. F. Parlow (National Hormone and Pituitary Program, Torrance, CA). Plasma T levels were analyzed using a commercial ELISA (Demeditec Diagnostics, GmnH, DEV9911) (Moore et al., 2015, Proc Natl Acad Sci USA, Vol. 112: 596-601) according to the manufacturers' instructions. […]"}, "[2]": {"system": "PAMH mice", "test": "Postnatal GnRH antagonist treatment in PAMH mice: estrous cyclicity, ovaries, hormone levels", "assay_type": "in vivo, mouse", "procedure": "FIG. 6A-6G. Postnatal GnRH antagonist treatment of PAMH mice restores the PCOS-like neuroendocrine phenotype. (FIG. 6A) Schematic of experimental design whereby vaginal cytology (estrous cyclicity) in PAMH adult (P60-P90, n=5) was analyzed for 12 days before and after postnatal intraperitoneal (i.p.) injections with 0.5 mg Kg^−1 cetrorelix acetate (PAMH+GnRH antag). Injections were administered every 2 days over 12 days and, on the first diestrus at the end of the treatment, trunk blood was collected for hormonal analysis. (FIG. 6B) Representation of estrous cyclicity of a female PAMH mouse before postnatal GnRH antagonist treatment (no treatment) and during postnatal GnRH antagonist treatment (PAMH+GnRH antag). Days of treatment are denoted by arrows. (FIG. 6C) Quantitative analysis of the % of completed estrous cycles in control (prenatal PBS-treated, n=19), PAMH (prenatal AMH-treated, n=19), and PAMH mice postnatally treated with GnRH antagonist (PAMH+GnRH antag, n=5). The horizontal line in each scatter plot corresponds to the median value. The vertical line represents the 25th-75th percentile range. Comparisons between treatment groups were performed using Kruskal-Wallis test followed by Dunn's post hoc analysis test (control vs PAMH ***P<0.0001; control vs PAMH+GnRH antag, P>0.999; PAMH vs PAMH+GnRH antag, *P=0.015). (FIG. 6D) Scatter plot representing the percentage (%) of time spent in each estrous cycle. The horizontal line in each scatter plot corresponds to the median value. The vertical line represents the 25th-75th percentile range. The percentage (%) of time spent in each estrous cycle was quantified in control, PAMH and PAMH+GnRH antag animals groups, as described above. Comparisons between treatment groups were performed using Kruskal-Wallis test followed by Dunn's post hoc analysis test (M/D: control vs PAMH ***P<0.0001; control vs PAMH+GnRH antag, P>0.999; PAMH vs PAMH+GnRH antag, *P=0.0051; E: control vs PAMH ***P<0.0001; control vs PAMH+GnRH antag, P>0.999; PAMH vs PAMH+GnRH antag, *P=0.014; P: control vs PAMH ***P<0.0001; control vs PAMH+GnRH antag, P>0.999; PAMH vs PAMH+GnRH antag, **P=0.0007). In FIG. 6D, (●): control; light grey point: PAMH; “○”: PAMH+GnRH antagonist. (FIG. 6E) Representative photomicrographs of ovaries from adult (P60-P90) control, PAMH and PAMH+GnRH antag mice. Ovary sections (5 μm thick) were stained with haematoxylin-eosin. (FIG. 6F) Mean T levels were measured in diestrus adult control (n=7), PAMH (n=5) and PAMH+GnRH antag (n=5) animals. Comparisons between treatment groups were performed using One-way ANOVA and Tukey's multiple comparisons post-hoc test, F (2,14)=29.24, ***P<0.0001. (FIG. 6G) Mean LH levels were measured in diestrus adult control (n=9), PAMH (n=10) and PAMH+GnRH antag (n=5) animals. Comparisons between treatment groups were performed using One-way ANOVA and Tukey's multiple comparisons post-hoc test, F(2,21)=65.78, ***P<0.0001. Abbreviations: M/D, Metestrus/Diestrus; E, Estrus; P, Proestrus; A, atretic follicles; CL, corpora lutea; AF, antral follcicles.\n(FIG. 10A) Schematic of experimental design whereby vaginal cytology (estrous cyclicity) in PAMH adult mice (P90, n=6) was analyzed during 3 months, before and after postnatal intraperitoneal (i.p.) injections with 0.05, 0.5 and 5 mg/Kg Cetrorelix acetate. The Y axis refers to the different stages of the estrous cycle: Metaestrus/Diestrus (M/D), Estrus (E) and Proestrus (P). The X axis represents the time-course of the experiments (days). Animals were injected i.p. every second day, for 12 days, with Cetrorelix acetate at the dose of 0.05 and 0.5 mg/Kg, and every day with Cetrorelix acetate at the dose of 5 mg/Kg. Tail-blood samples were collected for LH measurements twice before the beginning of the treatments, and at day 2 and 6 of each treatment as well as 4 days after the last injection (no treatment), that followed each administration period. […]"}, "[3]": {"conditions": "0.5 mg/Kg i.p. every second day for 12 days"}}, "note": "Where a SMILES comes first, the peptide text is derived from it. [ ]: non-standard residue; d: D form. dPhe(4-Cl) = N[C@H](Cc1ccc(Cl)cc1)C(=O)O; d2Nal = N[C@H](Cc1ccc2ccccc2c1)C(=O)O; dCit = NC(=O)NCCC[C@@H](N)C(=O)O; d3Pal = N[C@H](Cc1cccnc1)C(=O)O", "data": [{"smiles": "CC(=O)N[C@H](Cc1ccc2ccccc2c1)C(=O)N[C@H](Cc1ccc(Cl)cc1)C(=O)N[C@H](Cc1cccnc1)C(=O)N[C@@H](CO)C(=O)N[C@@H](Cc1ccc(O)cc1)C(=O)N[C@H](CCCNC(N)=O)C(=O)N[C@@H](CC(C)C)C(=O)N[C@@H](CCCNC(=N)N)C(=O)N1CCC[C@H]1C(=O)N[C@H](C)C(N)=O", "note": "[Cetrorelix acetate, Ac-D-2Nal-D-Phe(4-Cl)-D-3Pal-Ser-Tyr-D-Cit-Leu-Arg-Pro-D-Ala-NH2] (Ac-[d2Nal][dPhe(4-Cl)][d3Pal]SY[dCit]LRP[dA]-NH2)", "values": [{"measurement": "neonatal T and LH surges of PAMH female pups", "setting": "[1]", "value": "corrected"}, {"measurement": "serum LH levels of PAMH mice", "setting": "[2]; 0.05 mg/Kg i.p. every second day", "value": "significantly more elevated than in Control animals"}, {"measurement": "LH pulsatility in PAMH animals", "setting": "[2]; 0.5 mg/Kg every second day, diestrus, end of treatment", "value": "normalized the LH pulsatility"}, {"measurement": "LH levels of PAMH mice", "setting": "[2]; [3]", "value": "normalized"}, {"measurement": "estrous cyclicity of PAMH mice", "setting": "[2]; [3]", "value": "restored"}, {"measurement": "T levels of PAMH mice", "setting": "[2]; 0.5 mg/Kg i.p. every second day for 12 days, diestrus", "value": "normalized"}, {"measurement": "ovarian morphology of PAMH mice", "setting": "[2]; 0.5 mg/Kg i.p. every two days for 12 days", "value": "restored"}, {"measurement": "ovulation in PAMH animals", "setting": "[2]; 0.5 mg/Kg injected every 48 hours", "value": "restored ovulation"}, {"measurement": "serum LH levels of PAMH mice", "setting": "[2]; 5 mg/Kg i.p. daily", "value": "significantly suppressed"}, {"measurement": "reversibility of effects on LH secretion", "setting": "[2]; after discontinuation of treatment, independently of dose", "value": "reversible a few days after discontinuation of treatment"}]}]}
